Measured values: PubChem BioAssay AID1645863 (Buhrlage Lab, Dana-Farber Cancer Institute and Novartis …, 2021)
Active and inactive are the calls of the source. How the calls were made is not given here.

target: Ubiquitin carboxyl-terminal hydrolase 10 (Homo sapiens) (UniProt Q14694); test: primary hit verification, biochemical, ubiquitin-specific protease 10 deubiquitylase inhibitors, concentration-effect titration (AID 1645863); conditions: USP10 deubiquitinase enzymatic assay;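 further: potency values describe inhibition of USP10 cleavage of a fluorogenic ubiquitin substrate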
Sequence (Q14694 whole entry, looked up): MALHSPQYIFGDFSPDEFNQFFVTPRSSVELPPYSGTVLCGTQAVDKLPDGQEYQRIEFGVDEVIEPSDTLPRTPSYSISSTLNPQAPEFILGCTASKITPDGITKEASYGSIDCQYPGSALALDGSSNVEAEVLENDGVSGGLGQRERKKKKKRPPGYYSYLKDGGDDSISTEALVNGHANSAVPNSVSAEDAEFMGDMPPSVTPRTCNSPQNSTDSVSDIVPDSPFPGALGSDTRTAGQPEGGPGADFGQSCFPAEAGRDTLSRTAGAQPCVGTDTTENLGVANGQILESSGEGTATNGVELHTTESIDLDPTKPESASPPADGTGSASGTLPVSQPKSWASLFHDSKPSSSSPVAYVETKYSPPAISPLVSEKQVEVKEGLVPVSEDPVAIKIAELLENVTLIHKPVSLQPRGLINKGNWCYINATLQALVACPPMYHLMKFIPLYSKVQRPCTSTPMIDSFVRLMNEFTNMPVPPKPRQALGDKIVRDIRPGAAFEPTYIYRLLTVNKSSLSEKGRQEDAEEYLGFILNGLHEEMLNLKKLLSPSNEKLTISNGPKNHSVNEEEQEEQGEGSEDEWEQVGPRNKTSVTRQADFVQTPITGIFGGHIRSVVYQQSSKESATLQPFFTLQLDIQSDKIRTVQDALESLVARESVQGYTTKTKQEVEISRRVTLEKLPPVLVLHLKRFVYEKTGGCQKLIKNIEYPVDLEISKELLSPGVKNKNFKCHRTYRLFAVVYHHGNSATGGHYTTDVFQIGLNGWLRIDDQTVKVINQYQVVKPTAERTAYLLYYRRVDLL

Row | SMILES | IC50
1 | Cc1c(NC(=O)/C=C/c2cccc(Cl)c2Cl)cccc1-n1cnnn1 | > 40 µM (inactive)
2 | Cc1nc(-c2ccc(Cl)cc2)oc1C(=O)Nc1ccc(Cl)cc1 | 38.1 µM
3 | COc1cc2c(=O)n(Cc3ccccc3)c(=O)n(CC(=O)N3CCCc4ccccc43)c2cc1OC | 12.7 µM
4 | CC1CCc2c(sc(NC(=O)c3cccc(S(C)(=O)=O)c3)c2C(N)=O)C1 (stereo unspecified) | > 40 µM (inactive)
5 | CCc1ccc(NC(=O)C(C)OC(=O)/C=C/c2ccc(S(=O)(=O)Nc3cccc(S(N)(=O)=O)c3)cc2)cc1 (stereo unspecified) | 21.7 µM
6 | Cn1c(=O)[nH]c2nncnc2c1=O | > 40 µM (inactive)
7 | O=C1NC(=O)/C(=C/c2ccc(OC(=O)c3ccc(Cl)cc3Cl)cc2)N1 | 22.1 µM
8 | NC(=O)c1nc(-c2cccnc2)nc2c1[nH]c(=O)n2-c1ccc2c(c1)OCO2 | > 40 µM (inactive)
9 | O=C(NCc1ccc(Cl)cc1)c1cc2c(s1)-c1ccccc1OC2 | > 40 µM (inactive)
10 | CSc1ccc(CNC(=O)Cn2nc(C)c3c(C)n(-c4ccccc4)nc3c2=O)cc1 | 10.3 µM
11 | Cc1cc(NS(=O)(=O)c2ccc(NC(=O)COc3ccc(Cl)cc3)cc2)no1 | > 40 µM (inactive)
12 | Cc1nc2c(-c3ccc(Cl)cc3)c[nH]n2c(=O)c1Cc1ccccc1 | > 12.6 µM (inactive)
13 | Cc1ccc(-n2cc(C(=O)NCCCc3ccccc3)nn2)cc1 | 29.5 µM
14 | Cc1ccccc1-c1noc(-c2cccn(CC(=O)Nc3ccccc3F)c2=O)n1 | > 40 µM (inactive)
15 | O=C(CSc1nc2c(cnn2-c2ccccc2)c(=O)[nH]1)Nc1ccc(Cl)cc1F | > 40 µM (inactive)
16 | Cc1ccc2c(c1)N(C)C(=O)c1cc(NC(=O)c3ccc(F)cc3)ccc1O2 | 12.8 µM
17 | O=C(c1cc2occc2c(Nc2ccc(F)cc2)n1)N1CCN(c2ccccc2)CC1 | > 40 µM (inactive)
18 | O=C(c1cscn1)N1CCC2(CC1)CC1(CO2)Nc2ccccc2-n2cccc21 (stereo unspecified) | > 40 µM (inactive)
19 | O=C(O)C1C(C(=O)Nc2ccccc2)C2(c3ccccc3)C(=O)C1(c1ccccc1)C(c1ccccc1)=C2c1ccccc1 (stereo unspecified) | 4.25 µM
20 | COc1cc(NS(=O)(=O)c2ccc(NC(=O)COc3ccc(C)cc3Br)cc2)nc(OC)n1 | 38.6 µM
21 | O=c1oc2c3c(c(Cl)cc2c2c1CCCC2)OCN(Cc1ccccc1)C3 | > 40 µM (inactive)
22 | O=S1(=O)CCN(CC2CCCO2)c2c(Oc3ccccc3)nc(F)c(Cl)c21 (stereo unspecified) | > 40 µM (inactive)
23 | O=c1[nH]c(C2CCN(S(=O)(=O)c3ccc(S(=O)(=O)N4CCOCC4)cc3)CC2)nc2c1nnn2Cc1ccc(F)cc1 | > 40 µM (inactive)

Row | SMILES | IC50
24 | CCc1cccc(NC(=O)Cc2nnc3ccc(-c4nc(C)no4)cn23)c1 | > 40 µM (inactive)
25 | COc1ccc(-c2nc(-c3cn(-c4ccccc4)nn3)no2)c(OC)c1 | > 40 µM (inactive)
26 | COc1ccc(C2NC(=O)NC(C)=C2C(=O)OCC2CCCCC2)cc1OC (stereo unspecified) | > 40 µM (inactive)
27 | Cc1cc(N2CCOCC2)nc(N2CCN(C(=O)C(C)Oc3ccccc3)CC2)n1 (stereo unspecified) | > 40 µM (inactive)
28 | CCCC(O)CCCCCCCc1cc(O)cc(O)c1C(=O)OC(CCC)CCCCCCCc1cc(O)cc(O)c1 (stereo unspecified) | 21.8 µM
29 | Cn1c(=O)[nH]c(=O)c2c1nc(N1CCc3ccccc3C1)n2CCSc1nnnn1-c1ccccc1 | > 40 µM (inactive)
30 | Cc1cc(C)c(O)c(-c2cc(C(=O)Nc3ccccc3Cl)[nH]n2)c1 | > 40 µM (inactive)
31 | CC1=C(C)C(N(c2ccccc2)c2ccccc2)N(CCC(C)C)C1=O (stereo unspecified) | > 40 µM (inactive)
32 | Cn1cc(NC(=O)Nc2cccc(C(F)(F)F)c2)c2ccccc2c1=O | 28.5 µM
33 | O=C(CC1C(=O)Nc2nc3ccccc3n21)Nc1cccc2ccccc12 (stereo unspecified) | 16.5 µM
34 | O=C(NCc1ccc2c(c1)OCO2)c1[nH]nc2c1COc1ccccc1-2 | 15.2 µM
35 | CCCCCCCC1OC(=O)Cc2cc(O)c(O)c(O)c21 (stereo unspecified) | 3.3 µM
36 | CC(C)NC(=O)Cn1ccn2nc(-c3ccc(Cl)cc3)cc2c1=O | > 40 µM (inactive)
37 | Cc1ccc(C(=O)Nc2ccc3c(c2)Sc2ncccc2C(=O)N3C(C)C)cc1C | > 40 µM (inactive)
38 | COc1ccc(C)cc1NC(=O)CN1C(=O)C2CCCC2=Nc2ccccc21 (stereo unspecified) | > 40 µM (inactive)
39 | COc1cc(Cl)c(NC(=O)c2cc(-c3ccccn3)n[nH]2)c(OC)c1 | > 40 µM (inactive)
40 | COc1ccccc1CNC(=O)C1c2ccccc2C(=O)N1Cc1ccccc1C (stereo unspecified) | > 40 µM (inactive)
41 | COc1ccccc1-c1nc(-c2cn(-c3cccc(Cl)c3)nn2)no1 | 25.6 µM
42 | O=C(c1cnc2ccccc2n1)N1CCC(S(=O)(=O)c2ccc(-c3ccco3)cc2)CC1 | > 40 µM (inactive)
43 | Fc1cccc(Nc2nc(-c3ccccn3)nc3ccccc23)c1 | > 40 µM (inactive)
44 | Cc1cccc(NC(=O)CNC(=O)c2ccc(-c3noc(C4CCCC4)n3)cc2)c1C | > 40 µM (inactive)
45 | C/C=C/C=C/[C@@H]1Cc2cc(O)cc(O)c2O1 | 35.6 µM
46 | COc1ccc(NC2c3ccccc3C(=O)N2c2ccccn2)cc1 (stereo unspecified) | > 40 µM (inactive)
